Patent US10035778B2, “Meta-azacyclic amino benzoic acid derivatives as pan integrin antagonists” (Saint Louis University, priority 2015, dated 2018)

Experiments:
Type in all cases: binding
[1] = biological target: Recombinant human integrin αvβ5 (Homo sapiens (Human), UniProt P06756+P18084); test: Solid Phase Receptor Assay (SPRA) for αvβ5 function; conditions: vitronectin-coated plate
Description: 4. Solid Phase Receptor Assay (SPRA) for αvβ5 Function
Recombinant human vitronectin (R&D Systems, 2308-VN) at 0.25 μg/mL in TBS+ buffer (25 mM Tris pH 7.4, 137 mM NaCl, 2.7 mM KCl, 1 mM CaCl2, 1 mM MgCl2, 1 mM MnCl2) was added to wells (50 μL/well) of a 96-well half-well transparent microtiter plate (Greiner 675061) and incubated overnight at 4° C. Wells were washed 3 times with 150 μL TBS+ and 150 μL of blocking buffer (TBS+ with 1% bovine serum albumin, Sigma A7906) were added. The plate was incubated for 1 hr at 37° C. and then washed 3× with TBS+ buffer. Recombinant human integrin αvβ5 (R&D Systems, 2528-AV) was diluted to 0.1 μg/mL in TBS+/0.1% bovine serum albumin. Compounds were diluted 1:100 into the integrin solution and then 50 μL added to empty wells of the washed vitronectin-coated plate according to a standard template with each sample repeated in triplicate. After incubation for two hours at room temperature, the plate was washed 3× with 150 μL of TBS+ buffer. To each well, 50 μl of biotinylated anti-αv antibody (R&D Systems, BAF1219) at 0.5 μg/mL in TBS+/0.1% BSA at 0.5 μg/mL were added and the plate covered and incubated for 1 hr at room temperature. After washing the plate 3× with 150 μL of TBS+ buffer, 50 μL of streptavidin-conjugated horseradish peroxidase (R&D Systems DY998) diluted in TBS+ blocking buffer were added to the wells and the plate incubated for 20 min at room temperature. The plate was washed 3× with TBS+ buffer followed by 50 μL of TMB substrate (Sigma T4444) added to each well and the plate incubated for 20 min at room temperature. Plates were read by colorimetric detection at 650 nm wavelength using a Tecan Safire II plate reader. Concentration-response curves were constructed by non-linear regression (best fit) analysis, and IC50 values were calculated for each compound.

[2] = biological target: Recombinant human integrin αvβ8 (Homo sapiens (Human), UniProt P06756+P26012); test: Solid Phase Receptor Assay (SPRA) for αvβ8 function; conditions: LAP-coated plate
Chain of Recombinant human integrin αvβ8 (P06756 31-992): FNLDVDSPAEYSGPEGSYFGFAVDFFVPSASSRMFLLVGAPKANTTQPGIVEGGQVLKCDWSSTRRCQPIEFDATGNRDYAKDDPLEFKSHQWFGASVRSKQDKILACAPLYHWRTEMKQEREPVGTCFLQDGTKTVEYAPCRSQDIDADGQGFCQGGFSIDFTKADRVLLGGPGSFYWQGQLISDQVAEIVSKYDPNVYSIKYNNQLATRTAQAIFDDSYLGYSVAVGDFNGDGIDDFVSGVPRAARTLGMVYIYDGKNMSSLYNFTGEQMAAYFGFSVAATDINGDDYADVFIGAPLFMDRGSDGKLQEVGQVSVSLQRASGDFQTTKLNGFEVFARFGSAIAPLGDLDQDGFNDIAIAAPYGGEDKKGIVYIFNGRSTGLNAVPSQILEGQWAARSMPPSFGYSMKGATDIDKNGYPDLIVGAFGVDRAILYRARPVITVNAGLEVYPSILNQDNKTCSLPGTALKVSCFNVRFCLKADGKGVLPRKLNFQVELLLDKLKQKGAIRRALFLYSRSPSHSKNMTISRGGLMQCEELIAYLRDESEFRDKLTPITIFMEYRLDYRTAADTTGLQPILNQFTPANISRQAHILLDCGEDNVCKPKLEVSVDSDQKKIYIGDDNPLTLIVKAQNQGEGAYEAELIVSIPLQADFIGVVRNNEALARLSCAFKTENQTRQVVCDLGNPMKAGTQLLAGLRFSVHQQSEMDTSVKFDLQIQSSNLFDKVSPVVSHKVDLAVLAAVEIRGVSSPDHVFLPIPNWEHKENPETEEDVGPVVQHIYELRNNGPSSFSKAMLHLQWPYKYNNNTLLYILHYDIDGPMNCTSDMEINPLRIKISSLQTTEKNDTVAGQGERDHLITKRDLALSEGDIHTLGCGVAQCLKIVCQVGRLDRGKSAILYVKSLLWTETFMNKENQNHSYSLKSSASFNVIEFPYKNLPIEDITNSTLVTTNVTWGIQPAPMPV
Chain of Recombinant human integrin αvβ8 (P26012 43-684): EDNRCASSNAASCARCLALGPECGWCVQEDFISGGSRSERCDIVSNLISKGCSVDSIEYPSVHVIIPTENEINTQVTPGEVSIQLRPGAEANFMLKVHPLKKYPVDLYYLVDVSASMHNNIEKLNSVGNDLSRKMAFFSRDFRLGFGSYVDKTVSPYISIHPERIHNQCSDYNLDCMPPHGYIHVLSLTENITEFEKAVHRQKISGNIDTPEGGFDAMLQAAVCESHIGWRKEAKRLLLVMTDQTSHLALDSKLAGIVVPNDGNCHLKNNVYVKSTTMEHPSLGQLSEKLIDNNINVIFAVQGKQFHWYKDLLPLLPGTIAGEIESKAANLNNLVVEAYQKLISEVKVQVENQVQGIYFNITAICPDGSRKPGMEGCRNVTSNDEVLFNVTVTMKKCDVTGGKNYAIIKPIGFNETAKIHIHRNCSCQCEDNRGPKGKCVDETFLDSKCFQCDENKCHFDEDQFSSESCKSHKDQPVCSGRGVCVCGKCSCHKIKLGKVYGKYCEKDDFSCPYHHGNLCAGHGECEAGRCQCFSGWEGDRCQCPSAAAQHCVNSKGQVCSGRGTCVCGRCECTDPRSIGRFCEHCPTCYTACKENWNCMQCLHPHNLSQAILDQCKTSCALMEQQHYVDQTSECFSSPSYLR
Description: 6. Solid Phase Receptor Assay (SPRA) for αvβ8 Function
Recombinant human LAP protein (R&D Systems, Inc, 246-LP) diluted to 0.5 μg/mL in TBS+ buffer (25 mM Tris pH 7.4, 137 mM NaCl, 2.7 mM KCl, 1 mM CaCl2, 1 mM MgCl2, 1 mM MnCl2) was added to wells (50 μl/well) of a 96-well half-well transparent microtiter plate (Greiner 675061), and incubated overnight at 4° C. Wells were washed 3 times with 150 μL TBS+ and 150 μL of blocking buffer (TBS+ with 1% bovine serum albumin, Sigma A7906) were added. The plate was incubated for 1 hr at 37° C. and then washed 3× with TBS+. Recombinant human integrin αvβ8 (R&D Systems, 4135-AV) was diluted to 0.1 μg/mL in TBS+/0.1% bovine serum albumin. Compounds were diluted 1:100 into the integrin solution and 50 μL added to empty wells of the washed LAP-coated plate according to a standard template with each sample repeated in triplicate. After incubation for two hours at room temperature, the plate was washed 3× with 150 μL of TBS+. To each well, 50 μL of biotinylated anti-αv antibody (R&D Systems, BAF1219) at 1 μg/mL in TBS+/0.1% BSA were added and the plate was covered and incubated for 1 hr at room temperature. After washing the plate 3× with 150 μL of TBS+ buffer, 50 μL of streptavidin-conjugated horseradish peroxidase (R&D Systems, DY998) diluted in TBS+ blocking buffer were added to the wells and the plate incubated for 20 min at room temperature. The plate was washed 3× with TBS+ followed by 50 μL of TMB substrate (Sigma T4444) added to each well and the plate incubated for 20 min at room temperature. Plates were read by colorimetric detection at 650 nm wavelength using a Tecan Safire II plate reader. Concentration-response curves were constructed by non-linear regression (best fit) analysis, and IC50 values were calculated for each compound.

[3] = biological target: Recombinant human integrin αvβ1 (Homo sapiens (Human), UniProt P05556+P06756); test: Solid Phase Receptor Assay (SPRA) for αvβ1 function; conditions: fibronectin-coated plate
Chain of Recombinant human integrin αvβ1 (P06756 31-992): as the sequence (P06756 31-992) above
Chain of Recombinant human integrin αvβ1 (P05556 21-728): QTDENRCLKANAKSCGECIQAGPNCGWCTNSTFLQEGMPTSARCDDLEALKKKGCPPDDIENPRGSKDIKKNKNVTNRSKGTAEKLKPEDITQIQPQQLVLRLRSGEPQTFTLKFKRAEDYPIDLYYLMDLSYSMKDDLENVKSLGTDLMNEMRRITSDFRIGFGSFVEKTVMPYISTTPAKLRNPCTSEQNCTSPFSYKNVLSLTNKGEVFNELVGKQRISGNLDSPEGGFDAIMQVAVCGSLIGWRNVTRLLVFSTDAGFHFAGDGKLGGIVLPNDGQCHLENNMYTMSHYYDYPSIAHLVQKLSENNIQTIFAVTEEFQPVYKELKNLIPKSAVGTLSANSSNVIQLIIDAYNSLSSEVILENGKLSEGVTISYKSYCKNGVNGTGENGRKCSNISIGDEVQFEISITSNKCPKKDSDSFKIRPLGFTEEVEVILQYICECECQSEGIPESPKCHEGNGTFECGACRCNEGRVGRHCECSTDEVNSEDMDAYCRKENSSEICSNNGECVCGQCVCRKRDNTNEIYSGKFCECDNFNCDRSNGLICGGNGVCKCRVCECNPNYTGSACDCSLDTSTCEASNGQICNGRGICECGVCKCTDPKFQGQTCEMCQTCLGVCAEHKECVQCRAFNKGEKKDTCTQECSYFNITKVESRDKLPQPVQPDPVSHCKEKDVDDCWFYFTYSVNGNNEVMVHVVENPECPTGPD
Description: 2. Solid Phase Receptor Assay (SPRA) for αvβ1 Function
Purified human fibronectin (R&D Systems, 1918-FN) diluted to 5 μg/mL in TBS+ buffer (25 mM Tris pH 7.4, 137 mM NaCl, 2.7 mM KCl, 1 mM CaCl2, 1 mM MgCl2, 1 mM MnCl2) was added to wells (50 μL/well) of a 96-well half-well transparent microtiter plate (Greiner 675061) and incubated overnight at 4° C. Wells were washed 3 times with 150 μL TBS+ and 150 μL of blocking buffer (TBS+ with 1% bovine serum albumin, Sigma A7906) were added. The plate was incubated for 1 hr at 37° C. and then washed 3× with TBS+ buffer. Recombinant human integrin αvβ1 (R&D Systems. 6579-AV) was diluted to 2.0 μg/mL in TBS+/0.1% bovine serum albumin. Compounds were diluted 1:100 into the integrin solution and 50 μL added to empty wells of the washed fibronectin-coated plate according to a standard template with each sample repeated in triplicate. After incubation for two hours at room temperature, the plate was washed 3× with 150 μL of TBS+ buffer. To each well, 50 μL of biotinylated anti-αv antibody (R&D Systems, BAF1219) at 1 μg/mL in TBS+/0.1% BSA were added and the plate covered and incubated for 1 hr at room temperature. After washing the plate 3× with 150 μL of TBS+ buffer, 50 μL of streptavidin-conjugated horseradish peroxidase (R&D Systems, DY998) diluted in TBS+ blocking buffer were added to the wells and the plate incubated for 20 min at room temperature. The plate was washed 3× with TBS+ buffer followed by 50 μL of TMB substrate (Sigma, T4444) added to each well and the plate incubated for 20 min at room temperature. Plates were read by colorimetric detection at 650 nm wavelength using a Tecan Safire II plate reader. Concentration-response curves were constructed by non-linear regression (best fit) analysis, and IC50 values were calculated for each compound.

Chain of Recombinant human integrin αvβ5 (P06756 31-992): as the sequence (P06756 31-992) above
Chain of Recombinant human integrin αvβ5 (P18084 24-719): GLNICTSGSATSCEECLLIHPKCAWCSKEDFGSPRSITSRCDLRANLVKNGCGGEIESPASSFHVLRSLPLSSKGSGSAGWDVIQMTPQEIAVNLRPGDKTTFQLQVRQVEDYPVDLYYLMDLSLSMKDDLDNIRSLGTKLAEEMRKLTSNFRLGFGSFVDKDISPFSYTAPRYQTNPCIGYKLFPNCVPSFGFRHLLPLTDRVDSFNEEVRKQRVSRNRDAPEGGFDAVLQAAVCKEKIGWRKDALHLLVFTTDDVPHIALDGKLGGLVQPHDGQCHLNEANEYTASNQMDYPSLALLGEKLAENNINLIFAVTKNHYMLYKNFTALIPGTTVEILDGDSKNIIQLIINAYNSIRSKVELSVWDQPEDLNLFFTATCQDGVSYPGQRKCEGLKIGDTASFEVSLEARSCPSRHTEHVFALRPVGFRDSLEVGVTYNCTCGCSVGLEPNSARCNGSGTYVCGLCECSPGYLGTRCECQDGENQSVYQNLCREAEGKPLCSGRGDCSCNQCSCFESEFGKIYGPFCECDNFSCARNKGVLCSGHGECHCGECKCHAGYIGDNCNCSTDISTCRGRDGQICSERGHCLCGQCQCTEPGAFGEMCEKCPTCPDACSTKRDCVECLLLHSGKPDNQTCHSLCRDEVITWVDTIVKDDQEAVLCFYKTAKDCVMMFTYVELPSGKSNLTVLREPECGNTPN

Row | Compound | IC50 [1] [nM] | IC50 [2] [nM] | IC50 [3] [nM]
1 | O=C(O)C[C@H](NC(=O)CNC(=O)c1cc(O)cc(NC2=NCC(O)CN2)c1)c1cc(F)cc(Br)c1 (stereo partly drawn) [Example 13, (3S)-3-[3-bromo-5-fluoro-phenyl)-3-(2-(3-hydroxy-5-((5-hydroxy-1,4,5,6-tetrahydropyrimidin-2-yl)amino)benzamido)acetamido)propanoic acid] | 0.1 | 1 ± 0.3 | 1
2 | O=C(O)C[C@H](NC(=O)CNC(=O)c1cncc(NC2=NCC(O)CN2)c1)c1cc(Br)cc(Br)c1 (stereo partly drawn) [Example 14, (3S)-3-(3,5-dibromophenyl)-3-[[2-[[5-[(5-hydroxy-1,4,5,6-tetrahydropyrimidin-2-yl)amino]pyridine-3-carbonyl]amino]acetyl]amino]propanoic acid] | 0.1 | 0.2 | 0.7
3 | O=C(O)C[C@H](NC(=O)CNC(=O)c1cc(O)cc(NC2=NCC(O)CN2)c1)c1cc(Cl)cc(OC(F)(F)F)c1 (stereo partly drawn) [Example 16, (3S)-3-[3-chloro-5-(trifluoromethoxy)phenyl)-3-(2-(3-hydroxy-5-((5-hydroxy-1,4,5,6-tetrahydropyrimidin-2-yl)amino)benzamido)acetamido)propanoic acid] | 0.6 | 0.3 ± 0.1 | 3 ± 2
4 | O=C(O)C[C@H](NC(=O)CNC(=O)c1cc(O)cc(NC2=NCC(O)CN2)c1)c1cc(Br)cc(Br)c1 (stereo partly drawn) [Example 1, (3S)-3-(3,5-dibromophenyl)-3-(2-(3-hydroxy-5-((5-hydroxy-1,4,5,6-tetrahydropyrimidin-2-yl)amino)benzamido)acetamido)propanoic acid] | 0.2 | 0.3 ± 0.1 | 2 ± 2
5 | O=C(O)C[C@H](NC(=O)CNC(=O)c1cc(O)cc(NC2=NCC(O)CN2)c1)c1cc(C(F)(F)F)cc(C(F)(F)F)c1 (stereo partly drawn) [Example 10, (3S)-3-[3,5-bis(trifluoromethyl)phenyl)-3-(2-(3-hydroxy-5-((5-hydroxy-1,4,5,6-tetrahydropyrimidin-2-yl)amino)benzamido)acetamido]propanoic acid] | 1 | 0.3 ± 0.1 | 2 ± 1
6 | O=C(O)C[C@H](NC(=O)CNC(=O)c1cc(O)cc(NC2=NCC(O)CN2)c1)c1cc(Cl)cc(C(F)F)c1 (stereo partly drawn) [Example 3, (3S)-3-[3-chloro-5-(difluoromethyl)phenyl)-3-(2-(3-hydroxy-5-((5-hydroxy-1,4,5,6-tetrahydropyrimidin-2-yl)amino)benzamido)acetamido]propanoic acid] | 0.2 | 0.3 | 2
7 | O=C(O)C[C@H](NC(=O)CNC(=O)c1cc(O)cc(NC2=NCC(O)CN2)c1)c1cc(Br)cc(C(F)(F)F)c1 (stereo partly drawn) [Example 2, (3S)-3-(3-bromo-5-(trifluoromethyl)phenyl)-3-(2-(3-hydroxy-5-((5-hydroxy-1,4,5,6-tetrahydropyrimidin-2-yl)amino)benzamido)acetamido)propanoic acid] | 0.4 | 0.5 | 2
8 | O=C(O)C[C@H](NC(=O)CNC(=O)c1cc(O)cc(NC2=NCC(O)CN2)c1)c1cc(Br)cc(C(F)F)c1 (stereo partly drawn) [Example 4, (3S)-3-[3-bromo-5-(difluoromethyl)phenyl)-3-(2-(3-hydroxy-5-((5-hydroxy-1,4,5,6-tetrahydropyrimidin-2-yl)amino)benzamido)acetamido]propanoic acid] | 0.4 | 0.4 | 2
9 | O=C(O)C[C@H](NC(=O)CNC(=O)c1cncc(NC2=NCC(O)CN2)c1)c1cc(Cl)cc(C(F)(F)F)c1 (stereo partly drawn) [Example 7] | 0.2 | 0.4 | 1
10 | Cc1cc(Cl)cc([C@@H](CC(=O)O)NC(=O)CNC(=O)c2cccc(NC3=NCCN3)c2)c1O [Example C11, reference compound] | 2 | 11 | 16 ± 4
11 | O=C(O)C[C@H](NC(=O)CNC(=O)c1cc(O)cc(NC2=NCC(O)CN2)c1)c1cc(Br)cc(OC(F)(F)F)c1 (stereo partly drawn) [Example 17, (3S)-3-(3-bromo-5-(trifluoromethoxy)phenyl)-3-(2-(3-hydroxy-5-((5-hydroxy-1,4,5,6-tetrahydropyrimidin-2-yl)amino)benzamido)acetamido)propanoic acid] | 0.6 | 0.3 ± 0.1 | 4 ± 2

Now from value to molecule:

Row | IC50 [1] [nM] | IC50 [2] [nM] | IC50 [3] [nM] | Compound
12 | 25 | 7 | 101 | O=C(O)CC(NC(=O)CNC(=O)c1cc(O)cc(NC2=NCC(O)CN2)c1)c1cc(Br)cc(Br)c1O (stereo not drawn) [Example C7, reference compound]
13 | 5 | 18 | 13 | Cc1ccc(O)c(C(CC(=O)O)NC(=O)CNC(=O)c2cccc(NC(=N)N)c2)c1 (stereo not drawn) [Example C8, reference compound]
14 | 0.4 | 5 | 5 | O=C(O)C[C@H](NC(=O)CNC(=O)c1cc(O)cc(NC2=NCC(O)CN2)c1)c1ccccc1 (stereo partly drawn) [Example C2, reference compound]
15 | 2 | 5 | 14 ± 8 | Cc1cc(Cl)cc([C@@H](CC(=O)O)NC(=O)CNC(=O)c2cc(O)cc(NC3=NCC(O)CN3)c2)c1O (stereo partly drawn) [Example C10, reference compound]
16 | 0.4 | 6 ± 3 | 5 ± 2 | N=C(N)Nc1cccc(C(=O)NCC(=O)NC(CC(=O)O)c2cc(F)cc(C(F)(F)F)c2)c1 (stereo not drawn) [Example C9, reference compound]
17 | 3 ± 1 | 3 ± 2 | 17 ± 2 | O=C(O)C[C@H](NC(=O)CNC(=O)c1cc(O)cc(NC2=NCC(O)CN2)c1)c1cc(Cl)cc(Br)c1O (stereo partly drawn) [Example C1, reference compound]
18 | 2 | 6 | 10 | Cc1cc(C)cc(C(CC(=O)O)NC(=O)CNC(=O)c2cccc(NC(=N)N)c2)c1 (stereo not drawn) [Example C4, reference compound]
19 | 1 | 66 | 17 ± 5 | N=C(N)Nc1cccc(C(=O)NCC(=O)NC(CC(=O)O)c2ccccc2)c1 (stereo not drawn) [Example C5, reference compound]
